These are literature values, as cited in patent publication US20030069213A1, “ORAL PREPARATION” (priority 1997, published 2003).

For data set [1] the following is noted: dissolved in water.
Experiment in data set [2]: not given
This is another data set of the same source.

The structures appear in SMILES notation. In brackets after ≈: the same amount, converted by molar mass. Structures can show the parent of a compound that is named as a salt. Where two headings read alike, the source gives them in different places.

On to `OC[C@H]1O[C@@](CO)(O[C@H]2O[C@H](CO)[C@@H](O)[C@H](O)[C@H]2O)[C@@H](O)[C@@H]1O` [sucrose], for which the heat of dissolution is -4.5 cal/g in data set [1] and “Sucrose (−4.5) cal/g” in data set [1] (listed as Sucrose).

Take `OC[C@@H](O)[C@@H](O)CO` [erythritol]: the heat of dissolution in data set [1] is -42.9 cal/g.

With `CN/C(=N/CCSCc1nc[nH]c1C)NC#N` [cimetidine], the pKa (as a rule, the negative logarithm of the acid dissociation constant) is 7.1. For the same compound, the solubility in water in data set [2] (pH 6.5, 25° C.) is 30 mg/mL (≈ 119 mM). Also, the solubility in water in data set [2] (pH 8.3, 25° C.) was 5.3 mg/mL (≈ 21 mM).

Regarding `OC[C@@H](O)[C@H](O)[C@@H](O)CO` [xylitol], the results for the heat of dissolution in data set [1] and in data set [1] (listed as Xylitol) were -35 cal/g and “Xylitol (−35) cal/g”, respectively.

Regarding `NC[C@H]1CC[C@H](C(=O)Oc2ccc(CCC(=O)O)cc2)CC1` [cetraxate hydrochloride], the “pKa (amino group)” value is 10.5 and the “pKa (carboxyl group)” value was 4.5. In data set [2] (pH 2.8, 22° C.), the solubility in water is 27 mg/mL. Also, in data set [2] (pH 5.9, 22° C.), the solubility in water was 0.4 mg/mL.

On to `OC[C@@H](O)[C@@H](O)[C@H](O)[C@H](O)CO` [mannitol], for which the heat of dissolution in data set [1] was -28.9 cal/g; in data set [1] (listed as D-Mannitol) it was “(−28.9) cal/g”.

Regarding `OC[C@@H](O)[C@@H](O)[C@H](O)[C@@H](O)CO` [sorbitol], the heat of dissolution in data set [1] was -24.1 cal/g; in data set [1] (listed as D-Sorbitol), “(−24.1) cal/g”.

As for `Clc1ccccc1CN1CCc2sccc2C1` [ticlopidine hydrochloride], the pKa is reported as 6.93.

`NC[C@H]1CC[C@H](C(=O)O)CC1` [tranexamic acid]: the “pKa (amino group)” value is given as 10.65 and the “pKa (carboxyl group)” value is given as 4.33.

As for `OC[C@@H](O)[C@@H](O[C@H]1O[C@H](CO)[C@@H](O)[C@H](O)[C@H]1O)[C@H](O)[C@@H](O)CO` [maltitol], the results for the heat of dissolution in data set [1] and in data set [1] (listed as Maltitol) were -5.5 cal/g and “Maltitol (−5.5) cal/g”, respectively.
